In patent publication EP0183129A1, “Quinolonecarboxylic acid derivatives” (KYORIN PHARMACEUTICAL CO., LTD., priority 1984, dated 1986):
≈ marks a conversion by molar mass, not a printed value. Counter-ions that a name gives are not always drawn. Like-named read-outs stand apart in the source and are kept apart here.

Tests used:
[1] = tested on: Bacillus subtilis PCI 219; assay: In vitro antibacterial activity, MIC (standard strain); assay type: cell-based; conditions: PCI219
[2] = tested on: S. aureus Smith; assay: as above; assay type: cell-based, Staphylococcus aureus; conditions: Staphylococcus aureus, S. aureus Smith, 10^6 cells/ml, standard strain
[3] = tested on: S. epidermidis IID 866; assay: as above; assay type: cell-based; conditions: Staphylococcus epidermidis
[4] = tested on: S. faecalis IID 682; assay: as above; assay type: cell-based; conditions: Enterococcus faecalis, IID682; S. faecalis IID 682; 10^6 cells/ml; standard strain; read-out: MIC
[5] = tested on: E. coli ATCC 10536; assay: as above; assay type: cell-based; conditions: Escherichia coli, ATCC10536
[6] = tested on: E. coli ML 4707; assay: as above; assay type: cell-based; conditions: Escherichia coli, ML4707
[7] = tested on: Citrobacter freundii IID 976; assay: as above; assay type: cell-based; conditions: IID976; Citrobacter freundii IID 976; 10^6 cells/ml; standard strain; read-out: MIC
[8] = tested on: K. pneumoniae 1-220S; assay: as above; assay type: cell-based; conditions: Klebsiella pneumoniae, 1220S; K. pneumoniae 1-220S; 10^6 cells/ml; standard strain; read-out: MIC
[9] = tested on: Salmonella entritidis IID 604; assay: as above; assay type: cell-based; conditions: IID604; Salmonella entritidis IID 604; 10^6 cells/ml; standard strain; read-out: MIC
[10] = tested on: Shigella sonnei IID 969; assay: as above; assay type: cell-based; conditions: IID969, 10^6 cells/ml
Method: Experiment-1 In vitro antibacterial activity
The in vitro antibacterial activity against gram-positive and gram-negative bacteria has been investivated.
The minimum inhibitory concentration (MIC) was determined in accordance with the method recommended by Japan Society of Chemotherapy.

[11] = tested on: Yersinia enterocolitica IID 981; assay: as above; assay type: cell-based; conditions: IID981; Yersinia enterocolitica IID 981; 10^6 cells/ml; standard strain; read-out: MIC
[12] = tested on: S. marcescens GN 7577; assay: as above; assay type: cell-based; conditions: Serratia marcescens, GN7577; S. marcescens GN 7577; 10^6 cells/ml; standard strain; read-out: MIC
[13] = tested on: Pseudomonas aeruginosa V-1; assay: as above; assay type: cell-based; conditions: V1; Pseudomonas aeruginosa V-1; 10^6 cells/ml; standard strain; read-out: MIC
[14] = tested on: P. aeruginosa IID 1210; assay: as above; assay type: cell-based; conditions: Pseudomonas aeruginosa, IID1210; P. aeruginosa IID 1210; 10^6 cells/ml; standard strain; read-out: MIC
[15] = tested on: Acinetobacter anitratus IID 876; assay: as above; assay type: cell-based; conditions: Acinetobacter calcoaceticus, IID876, Acinetobacter anitratus IID 876; 10^6 cells/ml; standard strain; read-out: MIC
[16] = tested on: Alcaligenes faecalis 0104002; assay: as above; assay type: cell-based; conditions: Alcaligenes faecalis, 0104002, Alcaligenes faecalis 0104002; 10^6 cells/ml; standard strain; read-out: MIC
[17] = tested on: Bacteroides fragilis GM 7000; assay: as above; assay type: cell-based; conditions: GM7000; Bacteroides fragilis GM 7000; 10^6 cells/ml; standard strain; read-out: MIC
[18] = tested on: B. fragilis 0558; assay: as above; assay type: cell-based, Bacteroides fragilis; conditions: Bacteroides fragilis, 0558, B. fragilis 0558; 10^6 cells/ml; standard strain; read-out: MIC
[19] = tested on: Fusobacterium varium KYA 8501; assay: as above; assay type: cell-based; conditions: Fusobacterium varium, KYA8501, Fusobacterium varium KYA 8501; 10^6 cells/ml; standard strain; read-out: MIC
[20] = tested on: C. ramosum; assay: as above; assay type: cell-based; conditions: Thomasclavelia ramosa; C. ramosum; 10^6 cells/ml; standard strain; read-out: MIC
[21] = tested on: S. pneumoniae 15; assay: In vitro antibacterial activity, MIC (clinical isolates); assay type: cell-based; conditions: Streptococcus pneumoniae; S. pneumoniae 15; 10^6 cells/ml; clinical isolate; read-out: MIC
[22] = tested on: S. pneumoniae 2054; assay: as above; assay type: cell-based; conditions: Streptococcus pneumoniae; S. pneumoniae 2054; 10^6 cells/ml; clinical isolate; read-out: MIC
[23] = tested on: S. pyogenes 3130; assay: as above; assay type: cell-based; conditions: Streptococcus pyogenes, read-out: MIC
[24] = tested on: S. pyogenes 3102; assay: as above; assay type: cell-based; conditions: Streptococcus pyogenes; S. pyogenes 3102; 10^6 cells/ml; clinical isolate; read-out: MIC
[25] = tested on: S. pyogenes 3107; assay: as above; assay type: cell-based; conditions: Streptococcus pyogenes; S. pyogenes 3107; 10^6 cells/ml; clinical isolate; read-out: MIC
[26] = tested on: S. pyogenes 4340; assay: as above; assay type: cell-based; conditions: Streptococcus pyogenes; S. pyogenes 4340; 10^6 cells/ml; clinical isolate; read-out: MIC
[27] = tested on: S. agalactiae 4049; assay: as above; assay type: cell-based; conditions: Streptococcus agalactiae; S. agalactiae 4049; 10^6 cells/ml; clinical isolate; read-out: MIC
[28] = tested on: S. agalactiae 4342; assay: as above; assay type: cell-based; conditions: Streptococcus agalactiae; S. agalactiae 4342; 10^6 cells/ml; clinical isolate; read-out: MIC
[29] = tested on: S. agalactiae 4470; assay: as above; assay type: cell-based; conditions: Streptococcus agalactiae; S. agalactiae 4470; 10^6 cells/ml; clinical isolate; read-out: MIC
[30] = tested on: S. faecalis 49; assay: as above; assay type: cell-based; conditions: Enterococcus faecalis; S. faecalis 49; 10^6 cells/ml; clinical isolate; read-out: MIC
[31] = Bacillus subtilis PCI 219, 10^6 cells/ml, standard strain, read-out: MIC
[32] = IID866, S. epidermidis IID 866, 10^6 cells/ml, standard strain, read-out: MIC
[33] = E. coli ATCC 10536, 10^6 cells/ml, standard strain, read-out: MIC
[34] = E. coli ML 4707, 10^6 cells/ml, standard strain, read-out: MIC

SMILES	MIC [4] [µg/mL]	MIC [7] [µg/mL]	MIC [8] [µg/mL]	MIC [9] [µg/mL]	MIC [10] [µg/mL]	MIC [11] [µg/mL]	MIC [12] [µg/mL]	MIC [13] [µg/mL]	MIC [14] [µg/mL]	MIC [15] [µg/mL]	MIC [16] [µg/mL]	MIC [17] [µg/mL]	MIC [18] [µg/mL]	MIC [19] [µg/mL]	MIC [20] [µg/mL]	MIC [21] [µg/mL]	MIC [22] [µg/mL]	MIC [23] [µg/mL]	MIC [24] [µg/mL]	MIC [25] [µg/mL]	further results
CCNCC1CCN(c2c(F)cc3c(=O)c(C(=O)O)cn(C4CC4)c3c2Cl)C1 (stereo not drawn) [Example 13, 8-Chloro-l-cyclorpropyl-6-fluoro-1,4-dihydro-7-(3-ethylaminomethyl-l-pyrrolidinyl)-4-oxo-3-quinolinecarboxylic acid]	0.05 (≈ 0.123 µM)	0.05 (≈ 0.123 µM)	0.1 (≈ 0.245 µM)	0.05 (≈ 0.123 µM)	0.025 (≈ 0.0613 µM)	0.1 (≈ 0.245 µM)	0.78 (≈ 1.91 µM)	0.78 (≈ 1.91 µM)	1.56 (≈ 3.82 µM)	0.05 (≈ 0.123 µM)	0.39 (≈ 0.956 µM)	0.1 (≈ 0.245 µM)	0.1 (≈ 0.245 µM)	0.39 (≈ 0.956 µM)	0.2 (≈ 0.49 µM)	0.025 (≈ 0.0613 µM)	0.05 (≈ 0.123 µM)	0.05 (≈ 0.123 µM)	0.05 (≈ 0.123 µM)	0.05 (≈ 0.123 µM)	MIC [1, 31]: 0.0125 µg/mL (≈ 0.0306 µM); MIC ([2]; read-out: MIC): 0.025 µg/mL (≈ 0.0613 µM); MIC [3, 32]: 0.025 µg/mL (≈ 0.0613 µM); MIC [5, 33]: 0.025 µg/mL (≈ 0.0613 µM); MIC [6, 34]: 0.025 µg/mL (≈ 0.0613 µM); MIC [26]: 0.05 µg/mL (≈ 0.123 µM); MIC [27]: 0.05 µg/mL (≈ 0.123 µM); MIC [28]: 0.05 µg/mL (≈ 0.123 µM); MIC [29]: 0.05 µg/mL (≈ 0.123 µM); MIC [30]: 0.05 µg/mL (≈ 0.123 µM)
NCC1CCN(c2c(F)cc3c(=O)c(C(=O)O)cn(C4CC4)c3c2Cl)C1 (stereo not drawn) [Example 14, 8-Chloro-l-cyclopropyl-6-fluoro-l,4-dihydro-7-(3-aminomethyl-l-pyrrolidinyl)-4-oxo-3-quinolinecarboxylic acid hydrochloride]	0.05	0.025	0.05	0.025	0.0125	0.05	0.39	0.2	0.39	0.05	0.2	0.1	0.05	0.39	0.39	0.025	0.05	0.025	0.025	0.025	MIC ([1]; Bacillus subtilis): 0.0125 µg/mL; MIC [2]: 0.0125 µg/mL; MIC ([3]; IID866): 0.0125 µg/mL; MIC [5]: 0.0125 µg/mL; MIC [6]: 0.0125 µg/mL; MIC [26]: 0.05 µg/mL; MIC [27]: 0.05 µg/mL; MIC [28]: 0.05 µg/mL; MIC [29]: 0.05 µg/mL; MIC [30]: 0.05 µg/mL
NCC1CCN(c2c(F)cc3c(=O)c(C(=O)O)cn(C4CC4)c3c2Br)C1 (stereo not drawn) [Example 15, 7-(3-Aminomethyl-l-pyrrolidinyl)-8-bromo-l-cyclopropyl-6-fluoro-1,4-dihydro-4-oxo-3-quinolinecarboxylic acid]	0.1 (≈ 0.236 µM)	0.025 (≈ 0.0589 µM)	0.05 (≈ 0.118 µM)	0.025 (≈ 0.0589 µM)	0.0125 (≈ 0.0295 µM)	0.05 (≈ 0.118 µM)	0.78 (≈ 1.84 µM)	0.1 (≈ 0.236 µM)	0.78 (≈ 1.84 µM)	0.05 (≈ 0.118 µM)	0.2 (≈ 0.471 µM)	0.1 (≈ 0.236 µM)	≤ 0.05	0.39 (≈ 0.919 µM)	0.39 (≈ 0.919 µM)	0.05 (≈ 0.118 µM)	0.1 (≈ 0.236 µM)	0.05 (≈ 0.118 µM)	0.05 (≈ 0.118 µM)	0.05 (≈ 0.118 µM)	MIC ([1]; Bacillus subtilis): 0.0125 µg/mL (≈ 0.0295 µM); MIC [2]: 0.0125 µg/mL (≈ 0.0295 µM); MIC ([3]; IID866): 0.0125 µg/mL (≈ 0.0295 µM); MIC [5]: 0.0125 µg/mL (≈ 0.0295 µM); MIC [6, 34]: 0.025 µg/mL (≈ 0.0589 µM); MIC [26]: 0.05 µg/mL (≈ 0.118 µM); MIC [27]: 0.05 µg/mL (≈ 0.118 µM); MIC [28]: 0.1 µg/mL (≈ 0.236 µM); MIC [29]: 0.05 µg/mL (≈ 0.118 µM); MIC [30]: 0.2 µg/mL (≈ 0.471 µM)
CNCC1CCN(c2c(F)cc3c(=O)c(C(=O)O)cn(C4CC4)c3c2Br)C1 (stereo not drawn) [Example 16, 8-Bromo-1-cyclopropyl-6-fluoro-1,4-dihydro-7-(3-methylaminomethyl-l-pyrrolidinyl)-4-oxo-3-quinolinecarboxylic acid]	0.05 (≈ 0.114 µM)	0.05 (≈ 0.114 µM)	0.1 (≈ 0.228 µM)	0.05 (≈ 0.114 µM)	0.025 (≈ 0.057 µM)	0.1 (≈ 0.228 µM)	0.78 (≈ 1.78 µM)	0.2 (≈ 0.456 µM)	1.56 (≈ 3.56 µM)	0.05 (≈ 0.114 µM)	0.39 (≈ 0.89 µM)	0.2 (≈ 0.456 µM)	0.1 (≈ 0.228 µM)	0.39 (≈ 0.89 µM)	0.39 (≈ 0.89 µM)	0.05 (≈ 0.114 µM)	0.05 (≈ 0.114 µM)	0.05 (≈ 0.114 µM)	0.05 (≈ 0.114 µM)	0.05 (≈ 0.114 µM)	MIC [1, 31]: 0.0125 µg/mL (≈ 0.0285 µM); MIC ([2]; read-out: MIC): 0.0125 µg/mL (≈ 0.0285 µM); MIC [3, 32]: 0.025 µg/mL (≈ 0.057 µM); MIC [5, 33]: 0.025 µg/mL (≈ 0.057 µM); MIC [6, 34]: 0.025 µg/mL (≈ 0.057 µM); MIC [26]: 0.05 µg/mL (≈ 0.114 µM); MIC [27]: 0.05 µg/mL (≈ 0.114 µM); MIC [28]: 0.05 µg/mL (≈ 0.114 µM); MIC [29]: 0.05 µg/mL (≈ 0.114 µM); MIC [30]: 0.1 µg/mL (≈ 0.228 µM)
